Measurements as given in patent publication US20190070174A1, “METHODS OF TREATING NEURODEGENERATIVE DISEASES” (priority 2016, published 2019).

Columns and labels:
[1] = test system: MJD/SCA3 flies; assay: Survival of MJD/SCA3 flies; assay type: in vivo, Drosophila; conditions: 50 μM in food from eclosion
Procedure: Drosophila stocks were reared on standard cornmeal media at 25° C. in diurnal environments with ˜60% humidity. […] Full-length human ATXN3 cDNA with 77 CAG was cloned into pWalium10-moe (Perrimon Lab, Harvard Medical School). Flies that carry ATXN3 in site attP2 or the empty vector control into the same site as the most isogenic control line were generated. Injections were done into y[1], w[*]; +; attP2 (landing site). […] Adult flies of the following genotypes, w[*]; sqh-Gal4/+; UAS-ataxin-3Q77/+ or w[*], sqh-Gal4/+; Empty-Vector-Control/+ were switched from standard media to instant media as soon as they eclosed from their pupal case (day 0), and thereafter maintained on instant media with vehicle compound. Media was switched every three days, and death was noted daily.
At least 200 flies in groups of 9 to 17 flies per treatment vial were monitored.

[2] = test system: ATXN3; assay: Subchronic treatment of Q84 mice, anti-ATXN3 immunofluorescence of ventral pons; assay type: in vivo, human
Procedure: (§1) YACMJD84.2 transgenic mice were housed in cages with a maximum number of five animals and maintained in a standard 12-hour light/dark cycle with food and water ad libitum. Genotyping was performed using DNA isolated from tail biopsy at the time of weaning, and genotypes of all studied mice were confirmed using DNA extracted from tails collected post-mortem. […] Five hours after the final injection, mice were anesthetized with ketamine/xylazine and perfused transcardially with phosphate buffered saline (PBS) (for RNA and protein studies), and brains were immediately placed on dry ice and stored at −80° C.
Brains from mice perfused with 4% PFA were post-fixed overnight at 4° C. in the same fixative, immersed in 30% sucrose/PBS, and sectioned on a sledge microtome (SM200R Leica Biosystems). […] Neuronal nuclear ATXN3 was quantified using ImageJ by quantifying ATXN3 fluorescence in DAPI and NeuN double-positive nuclei. Corrected total cell fluorescence (CTCF) was obtained by measuring ATXN3 fluorescence in 15 nuclei/image field/mouse and normalizing for nuclei area using the equation CTCF=fluorescence intensity−(nucleus area×mean fluorescence of background readings). ATXN3 positive puncta were quantified using ImageJ by assessing particle fluorescence (applying the triangle threshold) in the same image fields described above.

[3] = test system: Hsf1; assay: Subchronic treatment of Q84 mice, Western blot of brainstem soluble fractions; assay type: in vivo, mouse
Procedure: as §1
(§2) Protein lysates from cell cultures, mouse brain slices or mouse brains were obtained by lysis in RIPA buffer containing protease inhibitors (Complete, Roche Diagnostics), followed by sonication and centrifugation. The supernatants (soluble protein fractions) were collected, total protein concentration was determined using the BCA method (Pierce) and then stored at −80° C. […] Pellets corresponding to insoluble protein fractions were resuspended in 100 μL of Laemmli buffer 2× and boiled for 10 min. Insoluble proteins were then quantified, and 100 μg were loaded in a filter trap assay apparatus and transferred to a nitrocellulose membrane (0.45 μm pore) that was incubated overnight with rabbit anti-MJD antibody (1:5000) at 4° C. Bound primary antibodies were visualized by incubation with a peroxidase-conjugated anti-mouse or anti-rabbit secondary antibody (1:10000; Jackson Immuno Research Laboratories) followed by treatment with the ECL-plus reagent (Western Lighting, PerkinElmer) and exposure to autoradiography films. Band intensity was quantified by densitometry using ImageJ.

[4] = test system: Hsp40; assay: as above; assay type: in vivo, mouse
Procedure: as §1, §2

[5] = test system: Hsp70; assay: as above; assay type: in vivo, mouse
Procedure: as §1, §2

[6] = test system: Hsp90a; assay: as above; assay type: in vivo, mouse
Procedure: as §1, §2

[7] = test system: Hsp90β; assay: as above; assay type: in vivo, mouse
Procedure: as §1, §2

[8] = test system: Rad23a; assay: as above; assay type: in vivo, mouse; conditions: Q84 mice vs vehicle
Procedure: as §1, §2

[9] = test system: Rad23b; assay: as above; assay type: in vivo, mouse; conditions: Q84 mice vs vehicle
Procedure: as §1, §2

[10] = mouse, in vivo; cited from earlier work

## O=C1CCc2ccc(OCCCCN3CCN(c4cccc(Cl)c4Cl)CC3)cc2N1 [aripiprazole]
[1]
  increased mean survival compared with vehicle-treated flies: 1.3 days
[1]; vehicle-treated 7.7±0.343
  mean survival: 9.0 ± 0.367 days
[2]; neuronal nuclei of ventral pons
  ATXN3 nuclear levels vs vehicle: no differences
[2]; pons
  total ATXN3 fluorescence vs control mice: non-significant trend towards a decrease
[3]
  Heat shock transcription factor (Hsf1) level: increased
[4]
  levels of Hsp40: No differences
[5]
  levels of Hsp70 compared with vehicle-treated mice: 62%
[6]
  levels of Hsp90a compared with vehicle-treated mice: 79%
[7]
  levels of Hsp90β compared with vehicle-treated mice: 22%
[8]
  levels of Rad23a: trend toward decreased levels
[9]
  levels of Rad23b: trend toward decreased levels
[10]
  maximum tolerable dose: 15 mg/kg
